# According to patent US11078127B2, “Organically chelated mineral compositions and methods thereof” (Ralco Nutrition, Inc., priority 2009, dated 2021):
# Tests used:
# Food Plot Clover Mix = test: Greenhouse flats, plant growth (sprouts, harvest weight, % of control): Food Plot Clover Mix, Flats 1-16 (Tables 2, 3); type: in vivo, mixture of clovers; conditions: Flat 13, Clover Mix 5.2 g seed/flat
# Description: (§1) Sixty-four sample flats were analyzed. Empty flats were filled with about 0.25 cubic feet of Miracle Gro Soil per flat (a complete soil with enough macro-nutrients, nitrogen, phosphorus and potash to feed the plants for 3-4 months). The seeds were planted and then the seeded soil treated. Flats were watered daily. Progress was documented weekly. This number of flats resulted from running a number of positive controls and several levels of the chelated cobalt lactate per plant selection or choice.
# (§2) The makeup of 64 flats was 8 sections times 8 flats per section. The first 8 flats were planted with a mixture of clovers. Flats 9-16 were also planted with the clover mixture at 5.2 grams seed/flat versus 2.6 grams seed/flat in 1-8. Flats 17-24 were planted with Fast & Fine Seed at 2.6 grams/flat, equivalent to the seeding rate from 2008. Fast & Fine Premium Grass Seed is a commercial mixture of Indy Perennial Ryegrass, Silver Dollar Perennial Ryegrass, Boreal Creeping Red Fescue, Kelly Kentucky Bluegrass and Clearwater Kentucky Bluegrass. Flats 25-32 were planted with a mixture including green globe turnips, dwarf Essex forage rapeseed, Rangi forage and giant rapeseed. Flats 33-40 were planted with a mixture of seeds including hybrid sunflower, grain sorghum, Proso millet and buck-wheat, at 5.2 grams/flat. […]
# [1] = test system: Fast & Fine Premium Grass Seed; test: Greenhouse flats, plant growth: Fast & Fine Grass seed, Flats 17-24 (Table 4); type: in vivo, Perennial Ryegrass, Creeping Red Fescue, Kentucky Bluegrass; conditions: 1 ppm applied to the soil; second year
# Description: as §1, §2
# grass = test: Growth of grass with cobalt lactate applied in the soil or sprayed (Example 1, Table 1); type: in vivo
# Excerpt: In Table 1, the growth of grass when cobalt lactate was applied either in the soil (before seeding) or sprayed directly onto the grass once growing is shown for the various levels of cobalt (0, 1, 10, 100 and 1000 ppm) that was applied. Following growth 2, cuttings were made then the total weight of grass was shown for the various treatments. […] All work was done with a fully complete soil with respect to nitrogen, phosphorus and potash (Miracle Gro Soil), so that the only difference in the greenhouse flats was the applied cobalt level and the manner in which it was applied.
# ruminal microorganisms = test: Effect of cobalt on methane, pH, ammonia-N, and digestibility in continuous cultures of ruminal microorganisms (Table 10); type: cell-based; conditions: for IVDMTD (in vitro dry matter true digestibility), %: 24 h incubation; for Culture pH, Post-feeding / Methane, nmol/ml, Post-feeding: average of samples at 1, 2, 4 and 6 h after AM feeding; for Culture pH, Pre-feeding / Methane, nmol/ml, Pre-feeding: samples taken at 0 hours
# Description: Ammonia-N concentrations were not affected (P>0.10) by dietary treatments. […] There was a source x level interaction (P<0.001) for neutral detergent fiber (NDF) digestibility (Table 6). […] Earlier studies reported no effect on DM and NDF digestibility when Co was added at the 5.0 or 10.0 ppm levels.
# [2] = Cobalt Medium DI H2O (spray), Target Cobalt Level 1 ppm
# [3] = Cobalt Medium DI H2O (spray), Target Cobalt Level 10 ppm
# [4] = Cobalt Medium DI H2O (spray), Target Cobalt Level 100 ppm
# [5] = Cobalt Medium DI H2O (spray), Target Cobalt Level 1000 ppm
# [6] = Cobalt Medium Soil, Target Cobalt Level 1 ppm
# [7] = Cobalt Medium Soil, Target Cobalt Level 10 ppm
# [8] = Cobalt Medium Soil, Target Cobalt Level 100 ppm
# [9] = Cobalt Medium Soil, Target Cobalt Level 1000 ppm
smiles,measurement,setting,value
CC(O)C(=O)[O-].CC(O)C(=O)[O-].[Co+2] (stereo not shown) [cobalt lactate],Growth ahead of the positive control (Delt Ag),Food Plot Clover Mix,13%
same,Grass growth,[1],double the grass growth
same,"Grass Cuttings Weight (gms, 1st)",grass; [2],15.7 gms
same,"Grass Cuttings Weight (gms, 2nd)",grass; [2],13.9 gms
same,"Sum Grass Cuttings Weight (gms, 1st + 2nd)",grass; [2],29.6 gms
same,"Grass Cuttings Weight (gms, 1st)",grass; [3],17.76 gms
same,"Grass Cuttings Weight (gms, 2nd)",grass; [3],14.37 gms
same,"Sum Grass Cuttings Weight (gms, 1st + 2nd)",grass; [3],32.13 gms
same,"Grass Cuttings Weight (gms, 1st)",grass; [4],18.56 gms
same,"Grass Cuttings Weight (gms, 2nd)",grass; [4],26.57 gms
same,"Sum Grass Cuttings Weight (gms, 1st + 2nd)",grass; [4],45.13 gms
same,"Grass Cuttings Weight (gms, 1st)",grass; [5],24.03 gms
same,"Grass Cuttings Weight (gms, 2nd)",grass; [5],15.44 gms
same,"Sum Grass Cuttings Weight (gms, 1st + 2nd)",grass; [5],39.47 gms
same,"Grass Cuttings Weight (gms, 1st)",grass; [6],31.06 gms
same,"Grass Cuttings Weight (gms, 2nd)",grass; [6],22.73 gms
same,"Sum Grass Cuttings Weight (gms, 1st + 2nd)",grass; [6],53.79 gms
same,"Grass Cuttings Weight (gms, 1st)",grass; [7],22.8 gms
same,"Grass Cuttings Weight (gms, 2nd)",grass; [7],31.41 gms
same,"Sum Grass Cuttings Weight (gms, 1st + 2nd)",grass; [7],54.21 gms
same,"Grass Cuttings Weight (gms, 1st)",grass; [8],16.33 gms
same,"Grass Cuttings Weight (gms, 2nd)",grass; [8],10.12 gms
same,"Sum Grass Cuttings Weight (gms, 1st + 2nd)",grass; [8],26.45 gms
same,"Grass Cuttings Weight (gms, 1st)",grass; [9],5.15 gms
same,"Grass Cuttings Weight (gms, 2nd)",grass; [9],1.81 gms
same,"Sum Grass Cuttings Weight (gms, 1st + 2nd)",grass; [9],6.96 gms
same,Growth of grass,grass; applied in the soil at 1 or 10 ppm or applied by spray at 100 ppm,roughly doubled
"O=C([O-])[O-].[Co+2] [Cobalt Carbonate, cobalt carbonate]",Ammonia-N,ruminal microorganisms; 0.2 ppm,10.79 mg/dL
same,"NDF Digestibility, %",ruminal microorganisms; 0.2 ppm,23.16%
same,"IVDMTD (in vitro dry matter true digestibility), %",ruminal microorganisms; 0.2 ppm,59.35%
same,"Culture pH, Post-feeding",ruminal microorganisms; 0.2 ppm,5.56
same,"Methane, nmol/ml, Post-feeding",ruminal microorganisms; 0.2 ppm,403.14 nmol/mL
same,"Culture pH, Pre-feeding",ruminal microorganisms; 0.2 ppm,5.81
same,"Methane, nmol/ml, Pre-feeding",ruminal microorganisms; 0.2 ppm,363.91 nmol/mL
same,Ammonia-N,ruminal microorganisms; 1.0 ppm,10.88 mg/dL
same,"NDF Digestibility, %",ruminal microorganisms; 1.0 ppm,17.09%
same,Effect on NDF digestibility,ruminal microorganisms; 1.0 ppm level,negative effect
same,"IVDMTD (in vitro dry matter true digestibility), %",ruminal microorganisms; 1.0 ppm,59.17%
same,"Culture pH, Post-feeding",ruminal microorganisms; 1.0 ppm,5.55
same,"Methane, nmol/ml, Post-feeding",ruminal microorganisms; 1.0 ppm,515.35 nmol/mL
same,"Culture pH, Pre-feeding",ruminal microorganisms; 1.0 ppm,5.88
same,"Methane, nmol/ml, Pre-feeding",ruminal microorganisms; 1.0 ppm,347.82 nmol/mL
same,Effect on methane concentration,"ruminal microorganisms; continuous cultures, P>0.10 for no effect",significant negative impact
